Results: paper PMC5567169 (Emerging Microbes & Infections, 2017)

Columns and labels:
FtlA [1] = target: T1, FtlA (Francisella tularensis, UniProt A0AAI8BGE8)
T1 construct: gene FTL_0430

FtlA [2] = target: T1, FtlA; remark: listed apart in the source

T1 sequence (A0AAI8BGE8 1-293): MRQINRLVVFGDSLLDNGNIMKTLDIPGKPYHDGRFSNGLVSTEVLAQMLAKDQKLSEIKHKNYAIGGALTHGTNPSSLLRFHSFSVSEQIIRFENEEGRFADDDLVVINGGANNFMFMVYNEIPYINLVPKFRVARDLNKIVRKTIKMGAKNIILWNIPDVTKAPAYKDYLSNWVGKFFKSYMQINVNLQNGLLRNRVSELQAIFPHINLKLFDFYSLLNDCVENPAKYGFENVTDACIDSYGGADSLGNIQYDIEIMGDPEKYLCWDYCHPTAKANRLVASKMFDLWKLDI

Row | Compound | halo (clear zone) assay on agar plates (FtlA [1]) | p-nitrophenyl ester hydrolysis by purified OMVs (FtlA [2])
1 | CCCC(=O)OCC(COC(=O)CCC)OC(=O)CCC [tributyrin] | E. coli strain harboring the FtlA-expressing plasmid (pST2000) showed a clear zone of halo | –
2 | CCCC(=O)Oc1ccc([N+](=O)[O-])cc1 [p-nitrophenyl butyrate (C4)] | – | OMVs of the wild-type LVS hydrolyzed p-nitrophenyl butyrate (C4) efficiently
